Test results taken from the NIST ThermoML archive (doi:10.1016/j.tca.2017.03.027).
Numbers after ± are expanded uncertainties.

Legend:
[1] = Crystal; DTA
[2] = Molar enthalpy of transition or fusion; conditions: Crystal; DSC

| Normal melting temperature [1] [°C] | Molar enthalpy of transition or fusion [2] [kcal/mol] | SMILES |
| --- | --- | --- |
| 53.70 ± 4 | 10.2 ± 0.454 | CCCCCCCCCCCCCC(=O)O [tetradecanoic acid] |
| 31.10 ± 4 | 6.86 ± 0.311 | CCCCCCCCCC(=O)O [decanoic acid] |
| 69.00 ± 4 | 15.1 ± 0.669 | CCCCCCCCCCCCCCCCCC(=O)O [octadecanoic acid] |
